The results in this text go back to ChEMBL document CHEMBL3525951, “Reevaluation of the microsomal metabolism of montelukast: major contribution by CYP2C8 at clinically relevant concentrations” (Drug Metab Dispos, 2011).

Data set [1] has as its system Liver microsome. Kind of data set: Drug metabolism in human liver microsomes assessed as 2-(1-(((1R)-1-(3-(2-(7-chloroquinolin-2-yl)vinyl)phenyl)-3-(2-(1,2-dihydroxypropan-2-yl)phenyl)propylthio)methyl)cyclopropyl)acetic acid formation at 0.4 uM after 15 mins by LC-MS analysis in presence of CYP1A2 inhibitor furafylline, CYP2B6 inhibitor clopidogrel, CYP2D6 inhibitor quinidine and CYP2C9 inhibitor sulfaphenazole. In kind it is ADME. The following applies: 0.25 h. Background: Liver microsomes are a subcellular fraction often used to study metabolism.

The subject of data set [2] is Liver microsome. Kind of data set: Drug metabolism in human liver microsomes assessed as (R)-2-(1-((1-(3-(2-(7-chloroquinolin-2-yl)vinyl)phenyl)-3-(4-hydroxy-2-(2-hydroxypropan-2-yl)phenyl)propylthio)methyl)cyclopropyl)acetic acid formation at 0.4 uM after 15 mins by LC-MS analysis in presence of CYP1A2 inhibitor furafylline, CYP2B6 inhibitor clopidogrel, CYP2D6 inhibitor quinidine and CYP2C9 inhibitor sulfaphenazole. It counts as ADME. The following applies: 0.25 h.

Data set [3] has as its system Liver microsome. Put plainly: Drug metabolism in human liver microsomes assessed as 2-(1-(((1R)-1-(3-(2-(7-chloroquinolin-2-yl)vinyl)phenyl)-3-(2-(1,2-dihydroxypropan-2-yl)phenyl)propylthio)methyl)cyclopropyl)acetic acid formation at 0.1 uM after 12 mins by LC-MS analysis in presence of 2-(1-(((S)-1-(3-(2-(7-chloroquinolin-2-yl)vinyl)phenyl)-3-(2-(2-hydroxypropan-2-yl)phenyl)propylsulfinyl)methyl)cyclopropyl)acetic acid. To be noted: 0.2 h. In kind it is ADME.

In another data set the target is Cytochrome P450 3A4 (Homo sapiens, UniProt P08684). Put plainly: Activity of recombinant human CYP3A4 expressed in microsomes isolated from baculovirus infected insect cell assessed as enzyme-mediated compound depletion at 0.02 uM after 30 mins by LC-MS analysis. To be noted: 0.5 h.
Cytochrome P450 3A4, sequence (P08684 whole entry): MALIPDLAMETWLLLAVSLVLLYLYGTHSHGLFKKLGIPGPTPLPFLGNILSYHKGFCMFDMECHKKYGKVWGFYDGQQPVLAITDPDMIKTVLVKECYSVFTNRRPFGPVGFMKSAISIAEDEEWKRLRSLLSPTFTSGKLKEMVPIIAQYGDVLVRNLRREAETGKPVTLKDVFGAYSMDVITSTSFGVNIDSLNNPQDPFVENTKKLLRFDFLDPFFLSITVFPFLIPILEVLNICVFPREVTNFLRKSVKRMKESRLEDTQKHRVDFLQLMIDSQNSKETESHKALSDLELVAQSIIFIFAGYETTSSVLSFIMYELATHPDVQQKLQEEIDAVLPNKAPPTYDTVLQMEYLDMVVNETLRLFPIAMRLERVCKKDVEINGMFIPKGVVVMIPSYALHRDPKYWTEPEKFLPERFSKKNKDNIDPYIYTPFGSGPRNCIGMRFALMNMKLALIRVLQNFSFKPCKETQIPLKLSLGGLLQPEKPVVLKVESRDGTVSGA

Turning to `CC(C)(O)c1ccccc1CC[C@@H](SCC1(CC(=O)[O-])CC1)c1cccc(/C=C/c2ccc3ccc(Cl)cc3n2)c1.[Na+]` [MONTELUKAST SODIUM], the Drug metabolism result was “metabolite_detected” in the data set on Liver microsome [1], “metabolite_detected” in the data set with Liver microsome [2], “metabolite_not_detected” in the data set on Liver microsome [3] and “metabolite_detected” on Cytochrome P450 3A4.
